PubChem BioAssay (NCI)
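96-well plates; 48 h exposure; 5 concentrations. Endpoints by linear interpolation between flanking doses. Not reached: highest tested concentration assigned. Here, GI50 denotes the concentration required for 50% inhibition of growth. At the TGI there is no net growth.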

Columns and labels:
Test in all cases: NCI tumour cell line growth inhibition, 48 h
CAKI-1 renal = test system: CAKI-1 renal
NCI/ADR-RES ovarian = test system: NCI/ADR-RES ovarian
SK-OV-3 ovarian = test system: SK-OV-3 ovarian
BT-549 breast = test system: BT-549 breast
HS 578T breast = test system: HS 578T breast
NCI-H226 lung = test system: NCI-H226 lung
786-0 renal = test system: 786-0 renal
A498 renal = test system: A498 renal
A549 NSCLC = test system: A549 NSCLC
ACHN renal = test system: ACHN renal
CCRF-CEM leukemia = test system: CCRF-CEM leukemia
COLO 205 colon = test system: COLO 205 colon
DU-145 prostate = test system: DU-145 prostate
EKVX NSCLC = test system: EKVX NSCLC
HCC-2998 colon = test system: HCC-2998 colon
HCT-116 colon = test system: HCT-116 colon
HCT-15 colon = test system: HCT-15 colon
HL-60(TB) leukemia = test system: HL-60(TB) leukemia
HOP-62 NSCLC = test system: HOP-62 NSCLC
HOP-92 NSCLC = test system: HOP-92 NSCLC
HT29 colon = test system: HT29 colon
IGROV1 ovarian = test system: IGROV1 ovarian
K-562 leukemia = test system: K-562 leukemia
KM12 colon = test system: KM12 colon
LOX IMVI melanoma = test system: LOX IMVI melanoma
MALME-3M melanoma = test system: MALME-3M melanoma
MCF7 breast = test system: MCF7 breast
MDA-MB-231 breast = test system: MDA-MB-231 breast
MDA-MB-435 = test system: MDA-MB-435
MOLT-4 leukemia = test system: MOLT-4 leukemia
NCI-H23 lung = test system: NCI-H23 lung
NCI-H460 lung = test system: NCI-H460 lung
NCI-H522 lung = test system: NCI-H522 lung
OVCAR-3 ovarian = test system: OVCAR-3 ovarian
OVCAR-4 ovarian = test system: OVCAR-4 ovarian
OVCAR-5 ovarian = test system: OVCAR-5 ovarian
OVCAR-8 ovarian = test system: OVCAR-8 ovarian
PC-3 prostate = test system: PC-3 prostate
RPMI-8226 leukemia = test system: RPMI-8226 leukemia
RXF 393 renal = test system: RXF 393 renal
SF-268 CNS = test system: SF-268 CNS
SF-295 CNS = test system: SF-295 CNS
SF-539 CNS = test system: SF-539 CNS
SK-MEL-2 melanoma = test system: SK-MEL-2 melanoma
SK-MEL-28 melanoma = test system: SK-MEL-28 melanoma
SK-MEL-5 melanoma = test system: SK-MEL-5 melanoma
SN12C renal = test system: SN12C renal
SNB-75 CNS = test system: SNB-75 CNS
SR leukemia = test system: SR leukemia
SW-620 colon = test system: SW-620 colon
TK-10 renal = test system: TK-10 renal
U251 CNS = test system: U251 CNS
UACC-257 melanoma = test system: UACC-257 melanoma
UO-31 renal = test system: UO-31 renal
M14 melanoma = test system: M14 melanoma
SNB-19 CNS = test system: SNB-19 CNS
UACC-62 melanoma = test system: UACC-62 melanoma

Cc1c2c(cc[n+]1Cc1ccc(F)cc1)c1ccc(OCc3cccc(F)c3)cc1n2Cc1cccc(F)c1
GI50 (CAKI-1 renal): 2.02 µM
TGI (CAKI-1 renal): 5.55 µM
GI50 (NCI/ADR-RES ovarian): 8.62 µM
TGI (NCI/ADR-RES ovarian): > 100 µM
GI50 (SK-OV-3 ovarian): 1.81 µM
TGI (SK-OV-3 ovarian): 3.28 µM

N=C(N)c1ccc(-c2ccc(-c3cc(Cl)cc(Cl)c3)s2)s1
GI50 (BT-549 breast): 4.37 µM
TGI (BT-549 breast): > 100 µM
GI50 (CAKI-1 renal): 1.72 µM
TGI (CAKI-1 renal): 3.35 µM
GI50 (HS 578T breast): 2.15 µM
TGI (HS 578T breast): 5 µM
GI50 (NCI-H226 lung): 30.8 µM
TGI (NCI-H226 lung): 65.4 µM
GI50 (SK-OV-3 ovarian): 3.62 µM
TGI (SK-OV-3 ovarian): 17.1 µM

O=C1C2=Nc3ccccc3C(O)(C(=O)O)N2c2ccccc21 (stereo not given)
TGI (786-0 renal): > 100 µM
TGI (A498 renal): 80.9 µM
TGI (A549 NSCLC): 24.6 µM
TGI (ACHN renal): > 100 µM
TGI (CAKI-1 renal): > 100 µM
TGI (CCRF-CEM leukemia): 94.9 µM
TGI (COLO 205 colon): 36.6 µM
TGI (DU-145 prostate): 29.8 µM
TGI (EKVX NSCLC): > 100 µM
TGI (HCC-2998 colon): > 100 µM
TGI (HCT-116 colon): 59.7 µM
TGI (HCT-15 colon): > 100 µM
TGI (HL-60(TB) leukemia): 77 µM
TGI (HOP-62 NSCLC): > 100 µM
TGI (HOP-92 NSCLC): > 100 µM
TGI (HS 578T breast): > 100 µM
TGI (HT29 colon): 49.2 µM
TGI (IGROV1 ovarian): > 100 µM
TGI (K-562 leukemia): > 100 µM
TGI (KM12 colon): > 100 µM
TGI (LOX IMVI melanoma): 59.2 µM
TGI (MALME-3M melanoma): 28.2 µM
TGI (MCF7 breast): 46.8 µM
TGI (MDA-MB-231 breast): 35.4 µM
TGI (MDA-MB-435): 5.5 µM
TGI (MOLT-4 leukemia): > 100 µM
TGI (NCI-H226 lung): > 100 µM
TGI (NCI-H23 lung): 54.3 µM
TGI (NCI-H460 lung): 39.3 µM
TGI (NCI-H522 lung): 50.2 µM
TGI (NCI/ADR-RES ovarian): > 100 µM
TGI (OVCAR-3 ovarian): 58.5 µM
TGI (OVCAR-4 ovarian): 32.4 µM
TGI (OVCAR-5 ovarian): 49.4 µM
TGI (OVCAR-8 ovarian): > 100 µM
TGI (PC-3 prostate): 20 µM
TGI (RPMI-8226 leukemia): > 100 µM
TGI (RXF 393 renal): > 100 µM
TGI (SF-268 CNS): > 100 µM
TGI (SF-295 CNS): 39.9 µM
TGI (SF-539 CNS): 48.4 µM
TGI (SK-MEL-2 melanoma): 43.4 µM
TGI (SK-MEL-28 melanoma): > 100 µM
TGI (SK-MEL-5 melanoma): 27.5 µM
TGI (SN12C renal): > 100 µM
TGI (SNB-75 CNS): 74.2 µM
TGI (SR leukemia): > 100 µM
TGI (SW-620 colon): > 100 µM
TGI (TK-10 renal): > 100 µM
TGI (U251 CNS): > 100 µM
TGI (UACC-257 melanoma): 24.2 µM
TGI (UO-31 renal): > 100 µM

COc1ccc(-c2cnoc2-c2cc(OC)c3c(c2)OCCO3)cc1
GI50 (786-0 renal): 0.0629 µM
TGI (786-0 renal): > 56.5 µM
GI50 (A498 renal): 0.0149 µM
TGI (A498 renal): 0.164 µM
GI50 (A549 NSCLC): 0.048 µM
TGI (A549 NSCLC): > 100 µM
GI50 (ACHN renal): 0.108 µM
TGI (ACHN renal): > 58.9 µM
GI50 (BT-549 breast): 0.073 µM
TGI (BT-549 breast): 27.8 µM
GI50 (CAKI-1 renal): 0.0409 µM
TGI (CAKI-1 renal): > 100 µM
GI50 (CCRF-CEM leukemia): 0.0379 µM
TGI (CCRF-CEM leukemia): > 100 µM
GI50 (COLO 205 colon): 0.0231 µM
TGI (COLO 205 colon): 0.0806 µM
GI50 (DU-145 prostate): 0.0456 µM
TGI (DU-145 prostate): > 46.9 µM
GI50 (HCC-2998 colon): 0.083 µM
TGI (HCC-2998 colon): 22 µM
GI50 (HCT-116 colon): 0.0396 µM
TGI (HCT-116 colon): > 37 µM
GI50 (HCT-15 colon): 0.0258 µM
TGI (HCT-15 colon): 28.1 µM
GI50 (HL-60(TB) leukemia): 0.0289 µM
TGI (HL-60(TB) leukemia): 0.975 µM
GI50 (HOP-62 NSCLC): 0.0319 µM
TGI (HOP-62 NSCLC): 56.6 µM
GI50 (HOP-92 NSCLC): 0.281 µM
TGI (HOP-92 NSCLC): 41.7 µM
GI50 (HS 578T breast): 0.0283 µM
TGI (HS 578T breast): 11.7 µM
GI50 (HT29 colon): 0.0331 µM
TGI (HT29 colon): 20.8 µM
GI50 (IGROV1 ovarian): 0.0924 µM
TGI (IGROV1 ovarian): > 100 µM
GI50 (K-562 leukemia): < 0.0115 µM
TGI (K-562 leukemia): > 100 µM
GI50 (KM12 colon): < 0.0162 µM
TGI (KM12 colon): 16 µM
GI50 (LOX IMVI melanoma): 0.0632 µM
TGI (LOX IMVI melanoma): 22.5 µM
GI50 (M14 melanoma): 0.0274 µM
TGI (M14 melanoma): > 46.8 µM
GI50 (MALME-3M melanoma): 39.8 µM
TGI (MALME-3M melanoma): > 100 µM
GI50 (MCF7 breast): 0.0304 µM
TGI (MCF7 breast): > 100 µM
GI50 (MDA-MB-231 breast): 0.0509 µM
GI50 (MOLT-4 leukemia): 0.0638 µM
TGI (MOLT-4 leukemia): > 100 µM
GI50 (NCI-H226 lung): 0.738 µM
TGI (NCI-H226 lung): > 94.4 µM
GI50 (NCI-H23 lung): 0.0599 µM
TGI (NCI-H23 lung): > 100 µM
GI50 (NCI-H460 lung): 0.0327 µM
TGI (NCI-H460 lung): 12.8 µM
GI50 (NCI-H522 lung): < 0.0141 µM
TGI (NCI-H522 lung): 0.0842 µM
GI50 (NCI/ADR-RES ovarian): < 0.0132 µM
TGI (NCI/ADR-RES ovarian): 49.5 µM
GI50 (OVCAR-3 ovarian): < 0.0172 µM
TGI (OVCAR-3 ovarian): 1.55 µM
GI50 (OVCAR-4 ovarian): 14 µM
TGI (OVCAR-4 ovarian): > 100 µM
GI50 (OVCAR-5 ovarian): 0.0617 µM
TGI (OVCAR-5 ovarian): > 86.7 µM
GI50 (OVCAR-8 ovarian): 0.0524 µM
TGI (OVCAR-8 ovarian): > 59.1 µM
GI50 (PC-3 prostate): 0.0377 µM
TGI (PC-3 prostate): > 100 µM
GI50 (RPMI-8226 leukemia): 0.0477 µM
TGI (RPMI-8226 leukemia): 33 µM
GI50 (SF-268 CNS): 0.127 µM
TGI (SF-268 CNS): > 100 µM
GI50 (SF-295 CNS): < 0.0108 µM
TGI (SF-295 CNS): 22.3 µM
GI50 (SF-539 CNS): 0.0235 µM
TGI (SF-539 CNS): 0.0907 µM
GI50 (SK-MEL-2 melanoma): 0.0279 µM
TGI (SK-MEL-2 melanoma): 16.2 µM
GI50 (SK-MEL-28 melanoma): 10.1 µM
TGI (SK-MEL-28 melanoma): > 100 µM
GI50 (SK-MEL-5 melanoma): 0.0222 µM
TGI (SK-MEL-5 melanoma): 0.592 µM
GI50 (SK-OV-3 ovarian): 0.0312 µM
TGI (SK-OV-3 ovarian): 2.8 µM
GI50 (SN12C renal): 0.402 µM
TGI (SN12C renal): > 94.3 µM
GI50 (SNB-19 CNS): 0.0525 µM
TGI (SNB-19 CNS): > 100 µM
GI50 (SNB-75 CNS): 0.0195 µM
TGI (SNB-75 CNS): 34.4 µM
GI50 (SR leukemia): 0.0226 µM
TGI (SR leukemia): 6.29 µM
GI50 (SW-620 colon): 0.0302 µM
TGI (SW-620 colon): > 100 µM
GI50 (TK-10 renal): 16.7 µM
TGI (TK-10 renal): > 100 µM
GI50 (U251 CNS): 0.0521 µM
TGI (U251 CNS): > 100 µM
GI50 (UACC-257 melanoma): 11.5 µM
TGI (UACC-257 melanoma): > 100 µM
GI50 (UACC-62 melanoma): < 0.015 µM
TGI (UACC-62 melanoma): > 100 µM
GI50 (UO-31 renal): 0.283 µM
TGI (UO-31 renal): > 100 µM
